What was measured:
Akt1 = biological target: T1, Akt1 (Homo sapiens, UniProt P31749); test: in vitro kinase assay, [γ-32P]ATP, GST-GSK-3β substrate; type: biochemical
T1 construct: active recombinant human Akt1

Akt3 = biological target: T2, Akt3 (Homo sapiens, UniProt Q9Y243); test: as above; type: biochemical
T2 construct: active recombinant human Akt3
T2 sequence (Q9Y243 2-479): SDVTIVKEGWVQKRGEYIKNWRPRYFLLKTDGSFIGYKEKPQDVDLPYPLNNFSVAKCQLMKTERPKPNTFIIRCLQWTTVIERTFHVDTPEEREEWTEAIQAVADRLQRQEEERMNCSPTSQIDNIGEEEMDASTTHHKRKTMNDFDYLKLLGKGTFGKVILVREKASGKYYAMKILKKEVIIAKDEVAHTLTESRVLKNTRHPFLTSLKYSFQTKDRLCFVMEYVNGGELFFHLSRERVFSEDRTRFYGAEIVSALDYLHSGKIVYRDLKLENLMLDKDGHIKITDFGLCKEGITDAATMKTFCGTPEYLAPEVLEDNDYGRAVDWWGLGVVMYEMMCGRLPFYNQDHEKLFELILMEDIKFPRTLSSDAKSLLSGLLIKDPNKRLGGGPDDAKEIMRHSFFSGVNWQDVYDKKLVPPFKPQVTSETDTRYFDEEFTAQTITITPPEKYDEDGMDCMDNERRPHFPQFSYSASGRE

T1 sequence (P31749 whole entry): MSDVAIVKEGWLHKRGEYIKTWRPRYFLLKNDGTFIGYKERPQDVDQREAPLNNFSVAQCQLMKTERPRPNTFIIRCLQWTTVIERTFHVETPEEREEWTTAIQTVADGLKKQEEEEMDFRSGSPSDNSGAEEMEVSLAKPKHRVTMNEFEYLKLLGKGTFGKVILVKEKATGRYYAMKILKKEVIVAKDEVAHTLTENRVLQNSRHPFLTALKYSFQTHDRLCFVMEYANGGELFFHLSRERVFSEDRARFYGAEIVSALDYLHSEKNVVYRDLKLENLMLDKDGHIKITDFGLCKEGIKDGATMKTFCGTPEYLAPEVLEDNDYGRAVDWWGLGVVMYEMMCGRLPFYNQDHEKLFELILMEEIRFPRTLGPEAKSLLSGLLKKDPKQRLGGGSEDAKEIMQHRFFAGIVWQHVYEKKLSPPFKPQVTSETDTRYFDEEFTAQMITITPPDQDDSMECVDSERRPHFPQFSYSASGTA

C=C(C)[C@@H]1CC[C@]2(C)CC[C@]3(C)[C@H](CC[C@@H]4[C@@]5(C)CC[C@H](O)C(C)(C)[C@@H]5CC[C@]43C)[C@@H]12 [lupeol]
in vitro kinase assay, [γ-32P]ATP, GST-GSK-3β substrate (Akt1): Compared to ac-LA, lupeol was about threefold less potent in the inhibition of Akt1 and Akt3 isoforms | in vitro kinase assay, [γ-32P]ATP, GST-GSK-3β substrate (Akt3): Compared to ac-LA, lupeol was about threefold less potent in the inhibition of Akt1 and Akt3 isoforms
